{"source": "ChEMBL document CHEMBL1144467", "about": "“Effect of topical microbicides on infectious human immunodeficiency virus type 1 binding to epithelial cells” (2007)", "key": {"[1]": {"tested_on": "Human immunodeficiency virus 1", "experiment": "Antiviral activity against HIV1 BaL assessed as logReduction in viral transmission from human A431 cells to human PBMC by ELISA", "format": "functional"}, "[2]": {"tested_on": "Human immunodeficiency virus 1", "experiment": "Inhibition of HIV1 BaL binding to human A431 cells relative to control", "format": "functional, organism-based", "details": "A-431"}, "[3]": {"tested_on": "Human immunodeficiency virus 1", "experiment": "Inhibition of HIV1 LAI binding to human Caco-2 cells relative to control", "format": "functional, organism-based"}, "[4]": {"tested_on": "Human immunodeficiency virus 1", "experiment": "Inhibition of HIV1 LAI binding to human A431 cells relative to control", "format": "functional, organism-based", "details": "A-431"}, "[5]": {"tested_on": "Human immunodeficiency virus 1", "experiment": "Inhibition of HIV1 BaL binding to human Caco-2 cells relative to control", "format": "functional, organism-based"}}, "note": "The source made the active and inactive calls. No cut-off for these calls is given here.", "data": [{"smiles": "CC(C)=CCOc1cc(NC(=S)c2ccoc2C)ccc1Cl", "note": "[UC 781]", "values": [{"measurement": "Activity", "setting": "[1]", "value": 6.1}, {"measurement": "Activity", "setting": "[2]", "value": "inactive"}, {"measurement": "Activity", "setting": "[3]", "value": "inactive"}, {"measurement": "Activity", "setting": "[4]", "value": "inactive"}, {"measurement": "Activity", "setting": "[5]", "value": "inactive"}]}]}
